Data: patent US9556122B2, “Luminescent 1-hydroxy-2-pyridinone chelates of lanthanides” (THE REGENTS OF THE UNIVERSITY OF CALIFORNIA, priority 2006, dated 2017)

Assay: Preliminary extraction study
Conditions: over a wide range of acidity and ionic strength

Structure (SMILES): CCCCCCCCNC(=O)c1cccc(=O)n1O [octyl-1,2-HOPO, 1-Hydroxy-6-N-octylcarboxamide-2(1H)-pyridinone]
- specificity as extractant for Pu(IV): high specificity
